# Like-named read-outs stand apart in the source and are kept apart here.
# Experiments:
# [1] = test system: Pseudomonas syringae (Gram negative); assay: Bacterial culture growth inhibition, cell density (OD: 600); format: cell-based; conditions: 24 h; for growth inhibition significance vs untreated (asterisks): N=4; for cell density (OD: 600): untreated 1.82
# Protocol: These compounds were also tested against other phytobacteria. The respective bacterial cultures were grown in the presence of multiple concentrations of a compound (μM) for 24 h, followed by cell density measurements (OD: 600). […]
# [2] = test system: Candidatus Liberibacter asiaticus (CLas); format: cell-based; conditions: 25 μM, 72 h; tetracycline 500 ppm
# [3] = test system: Candidatus Liberibacter solanacearum (CLso); format: cell-based; conditions: re-test, five biological replicates, 72 h; tetracycline 250 ppm
# [4] = test system: Clavibacter michiganensis (Gram positive); assay: Bacterial culture growth inhibition, cell density (OD: 600); format: cell-based; conditions: for cell density (OD: 600): untreated 1.61
# [5] = test system: Candidatus Liberibacter solanacearum (CLso); format: in vivo, potato (Solanum tuberosum L. var. Atlantic); conditions: foliar spray 10 and 25 μM twice a week, 28 dpi; for CLso titers by qPCR: vs untreated controls; for disease symptoms (chlorosis, necrosis, leaf curling and wilting): vs untreated plants
# [6] = test system: Agrobacterium tumefaciens (Gram negative); assay: Bacterial culture growth inhibition, cell density (OD: 600); format: cell-based; conditions: for cell density (OD: 600) / growth inhibition significance vs untreated (asterisks): 24 h; for cell density (OD: 600): untreated 1.12; for growth inhibition significance vs untreated (asterisks): N=4
# [7] = cited from earlier work
# [8] = test system: bacteria, fungi, and the superbug MRSA; conditions: agar patch studies; cited from earlier work
smiles,measurement,setting,value
"COc1ccc(C2COc3c(ccc(O)c3OC)C2)c(OC)c1O (single isomer, unassigned; (-)) [Duartin (−), (−)-duartin]",growth inhibition significance vs untreated (asterisks),[1]; 5 μM,"** (highly effective, **P≤0.001)"
same,cell density (OD: 600),[1]; 5 μM,1.77
same,growth inhibition significance vs untreated (asterisks),[1]; 10 μM,"** (highly effective, **P≤0.001)"
same,cell density (OD: 600),[1]; 10 μM,1.78
same,cell density (OD: 600),[1]; 20 μM,1.79
same,growth inhibition significance vs untreated (asterisks),[1]; 50 μM,"** (highly effective, **P≤0.001)"
same,cell density (OD: 600),[1]; 50 μM,1.76
same,inhibition of CLas (FIG. 1c),[2],inhibited
same,inhibition of CLso (FIG. 1b),[3],inhibited
same,cell density (OD: 600),"[4]; 5 μM, 24 h",1.66
same,cell density (OD: 600),"[4]; 10 μM, 24 h",1.61
same,cell density (OD: 600),"[4]; 20 μM, 24 h",1.65
same,cell density (OD: 600),"[4]; 50 μM, 24 h",1.62
same,CLso titers by qPCR,[5],lowered CLso titers
same,"disease symptoms (chlorosis, necrosis, leaf curling and wilting)",[5],clearly lower level of disease symptoms
same,cell density (OD: 600),[6]; 5 μM,1.10
same,cell density (OD: 600),[6]; 10 μM,1.11
same,cell density (OD: 600),[6]; 20 μM,1.10
same,cell density (OD: 600),[6]; 50 μM,1.09
"Cl.NCCCCCC(=O)O [Aminocaproic acid hydrochloride, 6-aminohexanoic acid]",cell density (OD: 600),[1]; 5 μM,1.80
same,cell density (OD: 600),[1]; 10 μM,1.81
same,cell density (OD: 600),[1]; 20 μM,1.80
same,growth inhibition significance vs untreated (asterisks),[1]; 50 μM,"* (effective, *P≤0.05)"
same,cell density (OD: 600),[1]; 50 μM,1.78
same,cell density (OD: 600),"[4]; 5 μM, 24 h",1.64
same,cell density (OD: 600),"[4]; 10 μM, 24 h",1.64
same,cell density (OD: 600),"[4]; 20 μM, 24 h",1.66
same,cell density (OD: 600),"[4]; 50 μM, 24 h",1.59
same,solubility,[7]; in chloroform,practically insoluble
same,solubility,[7]; in methanol,sparingly soluble
same,solubility,"[7]; in water, acid, and alkaline solutions",soluble
same,cell density (OD: 600),[6]; 5 μM,1.17
same,cell density (OD: 600),[6]; 10 μM,1.16
same,cell density (OD: 600),[6]; 20 μM,1.10
same,cell density (OD: 600),[6]; 50 μM,1.11
CN(C)CCOC(c1ccc(Cl)cc1)c1ccccn1.O=C(O)/C=C\C(=O)O (stereo not drawn) [Carbinoxamine maleate],cell density (OD: 600),[1]; 5 μM,1.81
same,cell density (OD: 600),[1]; 10 μM,1.81
same,cell density (OD: 600),[1]; 20 μM,1.81
same,growth inhibition significance vs untreated (asterisks),[1]; 50 μM,"* (effective, *P≤0.05)"
same,cell density (OD: 600),[1]; 50 μM,1.77
same,cell density (OD: 600),"[4]; 5 μM, 24 h",1.68
same,cell density (OD: 600),"[4]; 10 μM, 24 h",1.63
same,cell density (OD: 600),"[4]; 20 μM, 24 h",1.58
same,cell density (OD: 600),"[4]; 50 μM, 24 h",1.59
same,cell density (OD: 600),[6]; 5 μM,1.10
same,cell density (OD: 600),[6]; 10 μM,1.08
same,cell density (OD: 600),[6]; 20 μM,1.14
same,cell density (OD: 600),[6]; 50 μM,1.20
"Cc1cc(O)cc(C)c1Cl [Chloroxylenol, 4-chloro-3,5-dimethylphenol]",cell density (OD: 600),[1]; 5 μM,1.82
same,cell density (OD: 600),[1]; 10 μM,1.81
same,growth inhibition significance vs untreated (asterisks),[1]; 20 μM,"** (highly effective, **P≤0.001)"
same,cell density (OD: 600),[1]; 20 μM,1.76
same,growth inhibition significance vs untreated (asterisks),[1]; 50 μM,"** (highly effective, **P≤0.001)"
same,cell density (OD: 600),[1]; 50 μM,1.30
same,inhibition of CLas (FIG. 1c),[2],inhibited
same,inhibition of CLso (FIG. 1b),[3],inhibited
same,effective against Clavibacter michiganensis,[4],effective
same,cell density (OD: 600),"[4]; 5 μM, 24 h",1.59
same,cell density (OD: 600),"[4]; 10 μM, 24 h",1.56
same,cell density (OD: 600),"[4]; 20 μM, 24 h",1.52
same,growth inhibition significance vs untreated (asterisks),"[4]; 50 μM, 24 h, N=4","** (highly effective, **P≤0.001)"
same,cell density (OD: 600),"[4]; 50 μM, 24 h",1.38
same,CLso titers by qPCR,[5],lowered CLso titers
same,"disease symptoms (chlorosis, necrosis, leaf curling and wilting)",[5],clearly lower level of disease symptoms
same,time to kill a wide variety of microbes,[8],≤ 15 s
same,effective against Agrobacterium tumefaciens,[6],effective
same,cell density (OD: 600),[6]; 5 μM,1.12
same,cell density (OD: 600),[6]; 10 μM,1.06
same,cell density (OD: 600),[6]; 20 μM,0.99
same,growth inhibition significance vs untreated (asterisks),[6]; 50 μM,"* (effective, *P≤0.05)"
same,cell density (OD: 600),[6]; 50 μM,0.92
CCCNC(=O)NS(=O)(=O)c1ccc(Cl)cc1 [Chlorpropamide],growth inhibition significance vs untreated (asterisks),[1]; 5 μM,"** (highly effective, **P≤0.001)"
same,cell density (OD: 600),[1]; 5 μM,1.77
same,growth inhibition significance vs untreated (asterisks),[1]; 10 μM,"* (effective, *P≤0.05)"
same,cell density (OD: 600),[1]; 10 μM,1.78
same,growth inhibition significance vs untreated (asterisks),[1]; 20 μM,"** (highly effective, **P≤0.001)"
same,cell density (OD: 600),[1]; 20 μM,1.76
same,growth inhibition significance vs untreated (asterisks),[1]; 50 μM,"* (effective, *P≤0.05)"
same,cell density (OD: 600),[1]; 50 μM,1.77
same,effective against Clavibacter michiganensis,[4],effective
same,cell density (OD: 600),"[4]; 5 μM, 24 h",1.67
same,cell density (OD: 600),"[4]; 10 μM, 24 h",1.65
same,cell density (OD: 600),"[4]; 20 μM, 24 h",1.63
same,cell density (OD: 600),"[4]; 50 μM, 24 h",1.56
same,effective against Agrobacterium tumefaciens,[6],effective
same,cell density (OD: 600),[6]; 5 μM,1.14
same,cell density (OD: 600),[6]; 10 μM,1.14
same,cell density (OD: 600),[6]; 20 μM,1.17
same,cell density (OD: 600),[6]; 50 μM,1.16
"CCn1nc(C(=O)O)c(=O)c2cc3c(cc21)OCO3 [Cinoxacin, 1-ethyl-1,4-dihydro-4-oxo-[1,3] dioxolo [4,5-g] cinnoline-3-carboxylic acid]",growth inhibition significance vs untreated (asterisks),[1]; 5 μM,"* (effective, *P≤0.05)"
same,cell density (OD: 600),[1]; 5 μM,1.77
same,growth inhibition significance vs untreated (asterisks),[1]; 10 μM,"* (effective, *P≤0.05)"
same,cell density (OD: 600),[1]; 10 μM,1.76
same,growth inhibition significance vs untreated (asterisks),[1]; 20 μM,"** (highly effective, **P≤0.001)"
same,cell density (OD: 600),[1]; 20 μM,1.72
same,growth inhibition significance vs untreated (asterisks),[1]; 50 μM,"** (highly effective, **P≤0.001)"
same,cell density (OD: 600),[1]; 50 μM,1.76
same,cell density (OD: 600),"[4]; 5 μM, 24 h",1.63
same,cell density (OD: 600),"[4]; 10 μM, 24 h",1.64
same,cell density (OD: 600),"[4]; 20 μM, 24 h",1.59
same,cell density (OD: 600),"[4]; 50 μM, 24 h",1.57
same,effective against Agrobacterium tumefaciens,[6],effective
same,cell density (OD: 600),[6]; 5 μM,1.17
same,cell density (OD: 600),[6]; 10 μM,1.11
same,cell density (OD: 600),[6]; 20 μM,1.13
same,growth inhibition significance vs untreated (asterisks),[6]; 50 μM,"* (effective, *P≤0.05)"
same,cell density (OD: 600),[6]; 50 μM,0.94
CN(C)CCOC(=O)C(c1ccccc1)C1(O)CCCC1.Cl (stereo not drawn) [Cyclopentolate hydrochloride],growth inhibition significance vs untreated (asterisks),[1]; 5 μM,"* (effective, *P≤0.05)"
same,cell density (OD: 600),[1]; 5 μM,1.78
same,cell density (OD: 600),[1]; 10 μM,1.79
same,growth inhibition significance vs untreated (asterisks),[1]; 20 μM,"* (effective, *P≤0.05)"
same,cell density (OD: 600),[1]; 20 μM,1.77
same,growth inhibition significance vs untreated (asterisks),[1]; 50 μM,"** (highly effective, **P≤0.001)"
same,cell density (OD: 600),[1]; 50 μM,1.73
same,inhibition of CLas (FIG. 1c),[2],inhibited
same,inhibition of CLso (FIG. 1b),[3],inhibited
same,cell density (OD: 600),"[4]; 5 μM, 24 h",1.64
same,cell density (OD: 600),"[4]; 10 μM, 24 h",1.60
same,cell density (OD: 600),"[4]; 20 μM, 24 h",1.59
same,cell density (OD: 600),"[4]; 50 μM, 24 h",1.62
same,CLso titers by qPCR,[5],lowered CLso titers
same,"disease symptoms (chlorosis, necrosis, leaf curling and wilting)",[5],clearly lower level of disease symptoms
same,cell density (OD: 600),[6]; 5 μM,1.08
same,cell density (OD: 600),[6]; 10 μM,1.11
same,cell density (OD: 600),[6]; 20 μM,1.11
same,cell density (OD: 600),[6]; 50 μM,1.12
